# Data reported in patent EP3454861B1, “BENZOXAZINE OR QUINAZOLINE DERIVATIVES FOR USE IN THE TREATMENT OF ALZHEIMER'S DISEASE” (Biocodex, priority 2016, dated 2017).
# Columns and labels:
# [1] = test system: modèle murin de maladie d'Alzheimer par administration du peptide amyloïde β25-35; experiment: Spontaneous alternation test in the Y-maze (spatial working memory), Aβ25-35 mouse model; format: in vivo, souris; details: all doses tested (12,5, 25, 50 mg/kg per day IP), day 8, Aβ25-35 9 nmol ICV
# Text: Soixante-douze souris males Swiss (30-35 grammes) sont utilisées. Six groupes sont constitués et soumis à différents traitements : Tableau 1. Groupes de traitement.
# (§1) Le 1^er jour : une version « mélangée » (scrambled) du peptide amyloïde β25-35 (Sc.Aβ, témoin négatif) ou le peptide amyloïde β25-35 (Aβ25-35) est injecté par voie intra-cérébroventriculaire (ICV) (le peptide Aβ25-35 provoque l'intoxication cellulaire). Entre le 1^er jour et le 10^ème jour, les traitements sont administrés une fois par jour par voie intrapéritonéale (IP).
# Du 8^ème au 10^ème jour, deux tests comportementaux sont effectués : • Procédure d'alternance spontanée dans le labyrinthe en Y (évaluation de la mémoire spatiale de travail) le 8^ème jour, soit 7 jours après l'injection de peptide; • Réponse d'évitement passif (évaluation de la mémoire contextuelle à long terme) avec l'entrainement le 9^ème jour et la séance de rétention le 10^ème jour.
# Chaque souris est anesthésiée avec 2,5% d"isoflurane. Le peptide Aβ25-35 (9 nmol/souris) ou le peptide Sc.Aβ (9 nmol/souris) est injecté par voir ICV, dans un volume final de 3 µL/souris. […]
# GFAP = experiment: ELISA of GFAP in mouse hippocampus after Aβ25-35; format: in vivo, souris
# Text: as §1
# A la fin de la session de rétention d'évitement passif, le 10^ème jour, les animaux sont sacrifiés par décapitation. L'hippocampe et le cortex frontal sont disséqués et congelés dans l'azote liquide. L'hippocampe est utilisé pour mesurer le taux de peroxydation lipidique à l'aide d'une méthode colorimétrique et pour évaluer les taux de 4 marqueurs biochimiques par des tests ELISA. Le cortex est conservé à -80°C en attente d'analyses supplémentaires. Les plasmas sont également conservés en attente d'analyses supplémentaires. Les échantillons biologiques sont jetés après 3 mois.
# Pour tous les dosages, les […] sont homogénéisés, après décongélation, dans un tampon Tris (Tris 50 mM, 150 mM NaCl, pH 7,5) et traités par ultrasons pendant 20 secondes. […] Pour chaque dosage, l'absorbance est lue à 450 nm et la concentration est calculée en utilisant la courbe standard. Les résultats sont exprimés en pg ou ng de marqueur par mg de tissu et en pourcentage de solution Sc.Aβ + véhicule. 6 échantillons par groupe (n = 36 kits ELISA) sont dosés en double.
compound,measurement,setting,value
"CCNC1=Nc2ccc(Cl)cc2C(C)(c2ccccc2)O1 (stereo not shown) [Etifoxine, chlorhydratede 6-chloro-2-éthylamino-4-méthyl-4-phényl-4H-[3,1]benzoxazine]","déficits d'apprentissage (alternance spontanée, mémoire spatiale)",[1],atténue de façon significative les déficits d'apprentissage
same,Expression GFAP,GFAP; Aβ25-35/Etifoxine 12.5 mg/kg IP,"160,4 ± 10,2 % de Sc.Aβ/V"
same,Expression GFAP,GFAP; Aβ25-35/Etifoxine 25 mg/kg IP,"131,7 ± 4,3 % de Sc.Aβ/V"
same,Expression GFAP,GFAP; Aβ25-35/Etifoxine 50 mg/kg IP,"129,8 ± 2,7 % de Sc.Aβ/V"
